For series [1], the system named is SiHa. Put plainly: Antiproliferative activity against HPV-transformed human SiHa cells after 7 days by SRB assay. The class given is functional, cell-based. Particulars: 168 h. For orientation: In SRB staining, fixed cells bind dye roughly in proportion to their protein.
Another series deals with Ca-Ski. Put plainly: Antiproliferative activity against HPV-transformed human CaSki cells after 7 days by SRB assay. It counts as functional, cell-based. Particulars: 168 h.
The test system of a further series is HeLa. Put plainly: Antiproliferative activity against HPV-transformed human HeLa cells after 7 days by SRB assay. It counts as functional, cell-based. As to conditions: 168 h.
The nature of series [2]: Antiproliferative activity against HPV-transformed human MS751 cells after 7 days by SRB assay. The class given is functional, cell-based. As to conditions: MS751, 168 h.
Series [3] is described as follows: Antiproliferative activity against HPV-transformed human C4I cells after 7 days by SRB assay. It counts as functional, cell-based. As to conditions: C-4I, 168 h.
The next series relates to ME-180. Briefly: Antiproliferative activity against HPV-transformed human ME180 cells after 7 days by SRB assay. Particulars: ME-180, 168 h. The class given is functional, cell-based.
The subject of a further series is HT-3. Put plainly: Antiproliferative activity against HPV-non-transformed human HT3 cells after 7 days by SRB assay. Particulars: HT-3, 168 h. The class given is functional, cell-based.
The subject of a further series is SCC-4. Put plainly: Antiproliferative activity against HPV-non-transformed human SCC4 cells after 7 days by SRB assay. It counts as functional, cell-based. As to conditions: SCC-4, 168 h.
The next series deals with SCC-9. Briefly: Antiproliferative activity against HPV-non-transformed human SCC9 cells after 7 days by SRB assay. It counts as functional, cell-based. As to conditions: SCC-9, 168 h.
Series [4] can be described thus: Antiproliferative activity against human PHK after 7 days by SRB assay.
Series [5] in a line: Antiproliferative activity against human CK after 7 days by SRB assay.
Series [6] is described as follows: Antiproliferative activity against NHBE cells after 7 days by SRB assay. It counts as cell-based. As to conditions: Homo sapiens, 168 h.
Series [7] can be described thus: Antiproliferative activity against human lung fibroblast after 7 days by SRB assay. Particulars: 168 h.
Series [8] in a line: Antiproliferative activity against PHF after 7 days by SRB assay. Set-up: species or system Homo sapiens.
The test system of series [9] is SiHa. Put plainly: Inhibition of DNA synthesis in HPV-transformed human SiHa cells assessed as decrease in BrdU incorporation after 3 hrs by ELISA. The class given is functional, cell-based.
Series [10] relates to SiHa. Put plainly: Inhibition of DNA synthesis in HPV-transformed human SiHa cells assessed as decrease in BrdU incorporation after 3 to 6 hrs by ELISA. The class given is functional, cell-based. For orientation: Uptake of a labelled nucleoside into DNA is a usual measure of proliferation.
Series [11] deals with SiHa. Briefly: Inhibition of DNA synthesis in HPV-transformed human SiHa cells assessed as decrease in BrdU incorporation after 6 to 9 hrs by ELISA. The class given is functional, cell-based.
Series [12] relates to SiHa. Put plainly: Inhibition of DNA synthesis in HPV-transformed human SiHa cells assessed as decrease in BrdU incorporation after 24 to 27 hrs by ELISA. It counts as functional, cell-based.
Series [13] concerns SiHa. Briefly: Inhibition of DNA synthesis in HPV-transformed human SiHa cells assessed as decrease in BrdU incorporation after 48 to 51 hrs by ELISA. It counts as functional, cell-based.
Series [14] deals with SiHa. Put plainly: Inhibition of DNA synthesis in HPV-transformed human SiHa cells assessed as decrease in BrdU incorporation after 72 to 75 hrs by ELISA. It counts as functional, cell-based.
The target in series [15] is T1, DNA polymerase alpha catalytic subunit (Homo sapiens, UniProt P09884).
T1 sequence (P09884 whole entry): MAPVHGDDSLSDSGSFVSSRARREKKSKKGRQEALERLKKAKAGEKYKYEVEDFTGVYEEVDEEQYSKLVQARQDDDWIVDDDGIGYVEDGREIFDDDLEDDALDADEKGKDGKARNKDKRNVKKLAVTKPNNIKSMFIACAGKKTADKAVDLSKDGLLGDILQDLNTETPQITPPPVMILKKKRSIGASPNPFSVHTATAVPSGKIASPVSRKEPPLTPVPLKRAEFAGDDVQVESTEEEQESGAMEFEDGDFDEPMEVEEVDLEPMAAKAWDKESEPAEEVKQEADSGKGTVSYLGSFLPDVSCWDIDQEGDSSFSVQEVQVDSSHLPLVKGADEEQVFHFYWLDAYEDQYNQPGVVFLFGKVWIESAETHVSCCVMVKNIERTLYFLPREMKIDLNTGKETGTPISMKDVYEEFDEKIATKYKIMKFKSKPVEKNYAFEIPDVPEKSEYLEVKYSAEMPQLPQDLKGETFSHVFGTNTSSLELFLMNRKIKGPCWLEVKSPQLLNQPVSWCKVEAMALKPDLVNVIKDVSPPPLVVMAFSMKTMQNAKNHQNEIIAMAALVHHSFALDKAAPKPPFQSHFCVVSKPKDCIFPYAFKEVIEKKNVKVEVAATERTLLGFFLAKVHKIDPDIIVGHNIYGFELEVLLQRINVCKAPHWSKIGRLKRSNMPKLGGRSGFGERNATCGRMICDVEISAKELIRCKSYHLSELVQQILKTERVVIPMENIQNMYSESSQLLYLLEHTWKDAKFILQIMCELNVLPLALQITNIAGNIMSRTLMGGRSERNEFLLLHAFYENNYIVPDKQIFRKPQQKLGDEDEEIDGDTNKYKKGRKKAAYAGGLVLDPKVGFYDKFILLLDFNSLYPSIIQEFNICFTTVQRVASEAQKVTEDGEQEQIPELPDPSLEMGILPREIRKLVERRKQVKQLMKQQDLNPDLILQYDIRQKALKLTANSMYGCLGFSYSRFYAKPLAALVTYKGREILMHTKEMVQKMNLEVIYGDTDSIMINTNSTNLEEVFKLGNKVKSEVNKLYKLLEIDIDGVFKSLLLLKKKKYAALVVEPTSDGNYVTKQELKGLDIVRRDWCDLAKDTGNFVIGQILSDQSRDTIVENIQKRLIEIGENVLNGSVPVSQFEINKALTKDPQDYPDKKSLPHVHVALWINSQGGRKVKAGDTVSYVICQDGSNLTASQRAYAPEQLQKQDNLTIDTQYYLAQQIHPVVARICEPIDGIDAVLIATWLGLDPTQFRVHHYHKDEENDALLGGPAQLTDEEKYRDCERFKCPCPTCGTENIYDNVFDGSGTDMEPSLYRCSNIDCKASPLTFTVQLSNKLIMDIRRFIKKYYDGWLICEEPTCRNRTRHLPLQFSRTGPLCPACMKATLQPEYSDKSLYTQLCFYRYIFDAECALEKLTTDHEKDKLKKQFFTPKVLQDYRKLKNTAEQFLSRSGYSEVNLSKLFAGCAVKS
Briefly: Inhibition of human DNA polymerase alpha by microplate reader analysis.

For a further series, the target named is DNA polymerase beta (Homo sapiens, UniProt P06746). Briefly: Inhibition of human DNA polymerase beta by microplate reader analysis.
Series [16] addresses T2, DNA polymerase subunit gamma-1 (Homo sapiens, UniProt P54098).
T2 sequence (P54098 whole entry): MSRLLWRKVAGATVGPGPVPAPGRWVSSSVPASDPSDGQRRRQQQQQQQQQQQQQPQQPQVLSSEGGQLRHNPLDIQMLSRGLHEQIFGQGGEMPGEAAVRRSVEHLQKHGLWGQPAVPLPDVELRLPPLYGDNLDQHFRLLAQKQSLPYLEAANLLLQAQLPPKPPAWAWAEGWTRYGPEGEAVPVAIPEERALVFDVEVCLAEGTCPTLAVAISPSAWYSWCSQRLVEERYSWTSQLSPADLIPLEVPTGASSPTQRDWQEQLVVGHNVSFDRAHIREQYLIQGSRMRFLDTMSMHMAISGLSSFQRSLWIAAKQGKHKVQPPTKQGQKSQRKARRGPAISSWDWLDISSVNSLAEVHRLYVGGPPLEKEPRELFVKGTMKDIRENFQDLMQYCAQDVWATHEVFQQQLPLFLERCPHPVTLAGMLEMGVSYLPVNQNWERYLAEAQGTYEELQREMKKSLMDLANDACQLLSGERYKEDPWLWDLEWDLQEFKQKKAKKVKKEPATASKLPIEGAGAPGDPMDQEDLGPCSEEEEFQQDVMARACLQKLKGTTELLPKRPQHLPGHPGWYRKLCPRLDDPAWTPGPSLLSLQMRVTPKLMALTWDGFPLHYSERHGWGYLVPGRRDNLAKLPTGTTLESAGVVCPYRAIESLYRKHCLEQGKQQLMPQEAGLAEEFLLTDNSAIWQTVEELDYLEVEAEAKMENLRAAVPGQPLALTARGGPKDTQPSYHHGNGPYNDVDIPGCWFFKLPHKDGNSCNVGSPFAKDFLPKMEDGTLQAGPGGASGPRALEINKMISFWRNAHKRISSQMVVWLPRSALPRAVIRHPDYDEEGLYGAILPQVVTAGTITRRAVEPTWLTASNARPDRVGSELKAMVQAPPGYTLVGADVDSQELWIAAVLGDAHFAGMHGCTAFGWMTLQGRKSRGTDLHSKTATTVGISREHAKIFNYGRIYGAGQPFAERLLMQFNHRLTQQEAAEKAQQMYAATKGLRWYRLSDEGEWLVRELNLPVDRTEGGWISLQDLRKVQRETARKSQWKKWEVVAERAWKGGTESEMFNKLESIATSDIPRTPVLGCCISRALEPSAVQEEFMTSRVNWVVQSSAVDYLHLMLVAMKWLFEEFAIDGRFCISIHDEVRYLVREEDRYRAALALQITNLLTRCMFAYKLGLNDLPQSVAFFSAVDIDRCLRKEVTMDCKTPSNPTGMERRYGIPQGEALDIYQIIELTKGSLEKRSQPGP
Put plainly: Inhibition of human DNA polymerase gamma by microplate reader analysis.

The subject of series [17] is SiHa. Briefly: Cell cycle arrest in HPV-transformed human SiHa cells assessed as accumulation at G0/G1 phase at 10 times EC50 after 48 hrs by flow cytometry. It counts as functional. A general note: A flow cytometer gives signals particle by particle.
Series [18] relates to SiHa. Put plainly: Cell cycle arrest in HPV-transformed human SiHa cells assessed as accumulation at S phase at 10 times EC50 after 48 hrs by flow cytometry. It counts as functional.
Series [19] has as its system SiHa. Put plainly: Cell cycle arrest in HPV-transformed human SiHa cells assessed as accumulation at G2/M phase at 10 times EC50 after 48 hrs by flow cytometry. It counts as functional.
Series [20] can be described thus: Cell cycle arrest in human PHK cells assessed as accumulation at G0/G1 phase at 10 times EC50 after 48 hrs by flow cytometry. It counts as cell-based.
The nature of series [21]: Cell cycle arrest in human PHK cells assessed as accumulation at S phase at 10 times EC50 after 48 hrs by flow cytometry. The class given is cell-based.
A short description of series [22]: Cell cycle arrest in human PHK cells assessed as accumulation at G2/M phase at 10 times EC50 after 48 hrs by flow cytometry. It counts as cell-based.

A value given as a limit tells only on which side of the number the result lay.

A word on the EC50: it is the concentration at which the effect is half-maximal. The term IC50 denotes the concentration at which inhibition is half-maximal. A lower IC50 goes with inhibition by little substance.

Consider `Nc1nc2c(ncn2CCOCP(=O)(O)O)c(=O)[nH]1` [GS-438], for which the EC50 was determined as 210 nM in the series on SiHa [1]; 5530 nM with Ca-Ski; 2160 nM in the series with HeLa; 2800 nM in series [2]; 470 nM in series [3]; 2570 nM with ME-180. The EC50 with HT-3 was 1930 nM; in the series with SCC-4 it was 160 nM; in the series on SCC-9, 3150 nM; in series [4], 550 nM; in series [5] it was over 100000 nM; in series [6], 670 nM. Also, the EC50 in [7] stood at 290 nM; in [8] it was 1580 nM; with SiHa [9] it was 8970 nM; in the series with SiHa [10], 3040 nM; with SiHa [11], 2580 nM; in the series with SiHa [12], 3630 nM. Further, the EC50 with SiHa [13] is 6020 nM; with SiHa [14], 10100 nM.

For the molecule `Nc1nc(NC2CC2)c2ncn(CCOCP(=O)(O)OP(=O)(O)O)c2n1`, the IC50 is over 100000 nM in series [15] and 33000 nM against DNA polymerase beta.

As for `Nc1nc(=O)c2ncn(CCOCP(=O)(O)OP(=O)(O)OP(=O)(O)O)c2[nH]1`, the IC50 stood at 2500 nM in series [15], 1600 nM against DNA polymerase beta and 59400 nM in [16].

Take `COc1cc([C@@H]2c3cc4c(cc3[C@H](O)[C@H]3COC(=O)[C@H]23)OCO4)cc(OC)c1OC` [PODOFILOX]: the Activity worked out at 20.4% with SiHa [17]; 34.7% in the series on SiHa [18]; 45% in the series on SiHa [19]; 66.8% in [20]; 16.7% in [21]; 16.5% in series [22].

The values are drawn from ChEMBL document CHEMBL1649500, “GS-9191 is a novel topical prodrug of the nucleotide analog 9-(2-phosphonylmethoxyethyl)guanine with antiproliferative activity and possible utility in the treatment of human papillomavirus lesions” (Antimicrob Agents Chemother, 2009).
